# Measured values taken from patent US7932262B2 (Novartis AG, priority 2006, dated 2011).
# Read-outs that look alike come from different tables or passages of the source.
# How the values were obtained:
# PDK1 kinase = target: T1, PDK1 kinase (Homo sapiens, UniProt O15530); test: PDK1 Kinase Alpha Screen Assay; assay type: biochemical; settings: PDK1 Kinase Alpha Screen Assay; read-out: PDK1 IC50
# T1 sequence (O15530 1-556): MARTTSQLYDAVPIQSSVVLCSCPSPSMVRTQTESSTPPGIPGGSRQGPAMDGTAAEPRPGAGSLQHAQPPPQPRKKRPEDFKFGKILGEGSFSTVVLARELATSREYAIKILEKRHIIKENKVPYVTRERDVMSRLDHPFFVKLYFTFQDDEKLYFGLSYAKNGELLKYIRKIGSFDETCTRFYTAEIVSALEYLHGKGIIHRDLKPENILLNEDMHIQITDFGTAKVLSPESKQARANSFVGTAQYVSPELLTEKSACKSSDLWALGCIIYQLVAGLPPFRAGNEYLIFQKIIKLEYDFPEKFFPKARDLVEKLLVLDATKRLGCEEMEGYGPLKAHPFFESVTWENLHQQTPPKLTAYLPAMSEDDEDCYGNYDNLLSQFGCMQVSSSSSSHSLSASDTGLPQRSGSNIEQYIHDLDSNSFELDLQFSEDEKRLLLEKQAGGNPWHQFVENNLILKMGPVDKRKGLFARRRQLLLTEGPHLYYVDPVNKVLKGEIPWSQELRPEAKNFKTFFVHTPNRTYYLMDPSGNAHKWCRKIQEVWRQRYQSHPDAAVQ
# Outline: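 Test compounds were incubated with PDK1 kinase, 10 uM ATP and 50 nM biotinylated peptide substrate for 3-18 hours at pH 7.5 with 2.5% DMSO. Peptide phosphorylation was then detected by AlphaScreen proximity luminescence using a phospho-(Ser/Thr) PKA substrate antibody.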
# A2780 cells = test: Cell Proliferation Assay (Cell Titer Glo), A2780; assay type: cell-based; settings: Homo sapiens, read-out: CPEC50 A2780
# Outline: (§1)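 Cells seeded at 1000/well, allowed to adhere 3-5 h, then exposed to DMSO-dissolved compounds for 3 days at 37° C., 5% CO2. Medium replaced before Cell Titer Glo addition; luminescence read after 10 min.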
# PC3MM cells = test: Cell Proliferation Assay (Cell Titer Glo), PC3MM; assay type: cell-based; settings: read-out: CPEC50 PC3MM
# Outline: as §1
# [1] = cell proliferation, A2780 cells
# [2] = cell proliferation, PC3MM cells
Compound,IC50 (PDK1 kinase) [µM],"EC50 (A2780 cells; Cell Proliferation Assay, A2780) [µM]","EC50 (PC3MM cells; Cell Proliferation Assay, PC3MM) [µM]",EC50 (A2780 cells; [1]) [µM],EC50 (PC3MM cells; [2]) [µM]
"c1cc(N2CCOCC2)ccc1Nc1ncc2cc(-c3cnoc3)c(OC3CCNCC3)cc2n1 [Compound 652, 6-(isoxazol-4-yl)-N-(4-morpholinophenyl)-7-(piperidin-4-yloxy)quinazolin-2-amine]",< 5,< 5,< 5,–,–
"NS(=O)(=O)c1ccc(Nc2ncc3cccc(-c4ccnc(F)c4)c3n2)cc1 [Compound 741, 4-(8-(2-fluoropyridin-4-yl)quinazolin-2-ylamino)benzenesulfonamide]",< 5,–,–,< 5,< 5
"NS(=O)(=O)c1ccc(Nc2ncc3cccc(OC4CN5CCC4CC5)c3n2)cc1 (stereo not drawn) [Compound 722, 4-(8-(quinuclidin-3-yloxy)quinazolin-2-ylamino)benzenesulfonamide]",< 5,–,–,< 5,< 5
"COc1ncc(-c2ccc3cnc(Nc4ccc(S(N)(=O)=O)cc4)nc3c2)cn1 [Compound 814, 4-(7-(2-methoxypyrimidin-5-yl)quinazolin-2-ylamino)benzenesulfonamide]",< 5,–,–,< 5,< 5
"NS(=O)(=O)c1ccc(Nc2ncc3cccc(C(=O)NC4CCNCC4)c3n2)cc1 [Compound 805, N-(piperidin-4-yl)-2-(4-sulfamoylphenylamino)quinazoline-8-carboxamide]",< 5,–,–,5 to 10,< 5
"NS(=O)(=O)c1ccc(Nc2ncc3cccc(-c4ccc(-c5ccn[nH]5)cc4)c3n2)cc1 [Compound 732, 4-(8-(4-(1H-pyrazol-5-yl)phenyl)quinazolin-2-ylamino)benzenesulfonamide]",< 5,–,–,< 5,< 5
"NS(=O)(=O)c1ccc(Nc2ncc3cccc(C(=O)N[C@H]4CN5CCC4CC5)c3n2)cc1 [Compound 807, (R)-N-(quinuclidin-3-yl)-2-(4-sulfamoylphenylamino)quinazoline-8-carboxamide]",5 to 10,–,–,5 to 10,5 to 10
"COCCN1CCN(C(=O)c2ccc3cnc(Nc4ccc(S(N)(=O)=O)cc4)nc3c2)CC1 [Compound 764, 4-(7-(4-(2-methoxyethyl)piperazine-1-carbonyl)quinazolin-2-ylamino)benzenesulfonamide]",10 to 25,–,–,5 to 10,10 to 25
"NS(=O)(=O)c1ccc(Nc2ncc3cccc(-c4ccccc4)c3n2)cc1 [Compound 757, 4-(8-phenylquinazolin-2-ylamino)benzenesulfonamide]",< 5,–,–,< 5,< 5
"CC(=O)NCCNc1cc(-c2cccc3cnc(Nc4ccc(S(N)(=O)=O)cc4)nc23)ccn1 [Compound 746, N-(2-(4-(2-(4-sulfamoylphenylamino)quinazolin-8-yl)pyridin-2-ylamino)ethyl)acetamide]",< 5,–,–,5 to 10,< 5
NS(=O)(=O)c1ccc(Nc2ncc3cccc(-c4ccnc(N5CCS(=O)(=O)CC5)c4)c3n2)cc1 [Compound 754],< 5,–,–,< 5,< 5
"NS(=O)(=O)c1ccc(Nc2ncc3ccc(-c4ccc(F)nc4)cc3n2)cc1 [Compound 837, 4-(7-(6-fluoropyridin-3-yl)quinazolin-2-ylamino)benzenesulfonamide]",< 5,–,–,< 5,< 5
"NS(=O)(=O)c1ccc(Nc2ncc3cccc(OC4CNC4)c3n2)cc1 [Compound 819, 4-(8-(azetidin-3-yloxy)quinazolin-2-ylamino)benzenesulfonamide]",< 5,–,–,5 to 10,< 5
"NS(=O)(=O)c1ccc(Nc2ncc3ccc(-c4ccc(C(=O)N5CCOCC5)cc4)cc3n2)cc1 [Compound 802, 4-(7-(4-(morpholine-4-carbonyl)phenyl)quinazolin-2-ylamino)benzenesulfonamide]",< 5,–,–,5 to 10,< 5
"COc1cncc(-c2ccc3cnc(Nc4ccc(S(N)(=O)=O)cc4)nc3c2)c1 [Compound 801, 4-(7-(5-methoxypyridin-3-yl)quinazolin-2-ylamino)benzenesulfonamide]",< 5,–,–,< 5,< 5
"NS(=O)(=O)c1ccc(Nc2ncc3cccc(-c4ccc(N5CCNC(=O)C5)nc4)c3n2)cc1 [Compound 828, 4-(8-(6-(3-oxopiperazin-1-yl)pyridin-3-yl)quinazolin-2-ylamino)benzenesulfonamide]",< 5,–,–,< 5,< 5
"O=S(=O)(c1cccc(Nc2ncc3cccc(OC4CCNCC4)c3n2)c1)N1CCOCC1 [Compound 773, N-(3-(morpholinosulfonyl)phenyl)-8-(piperidin-4-yloxy)quinazolin-2-amine]",< 5,–,–,< 5,< 5
"CN1CCN(C(=O)c2cccc(-c3cccc4cnc(Nc5ccc(S(N)(=O)=O)cc5)nc34)c2)CC1 [Compound 822, 4-(8-(3-(4-methylpiperazine-1-carbonyl)phenyl)quinazolin-2-ylamino)benzenesulfonamide]",< 5,–,–,< 5,< 5
"CCN1CCC(Oc2cccc3cnc(Nc4ccc(S(N)(=O)=O)cc4)nc23)CC1 [Compound 817, 4-(8-(1-ethylpiperidin-4-yloxy)quinazolin-2-ylamino)benzenesulfonamide]",< 5,–,–,< 5,< 5
"CN1CCN(C(=O)c2ccc3cnc(Nc4ccc(S(N)(=O)=O)cc4)nc3c2)CC1 [Compound 798, 4-(7-(4-methylpiperazine-1-carbonyl)quinazolin-2-ylamino)benzenesulfonamide]",10 to 25,–,–,5 to 10,10 to 25
"NS(=O)(=O)c1ccc(Nc2ncc3cccc(C(=O)N[C@@H]4CN5CCC4CC5)c3n2)cc1 [Compound 809, (S)-N-(quinuclidin-3-yl)-2-(4-sulfamoylphenylamino)quinazoline-8-carboxamide]",< 5,–,–,5 to 10,< 5
"NS(=O)(=O)c1ccc(Nc2ncc3cccc(-c4ccc(N5CCCC5)nc4)c3n2)cc1 [Compound 832, 4-(8-(6-(pyrrolidin-1-yl)pyridin-3-yl)quinazolin-2-ylamino)benzenesulfonamide]",< 5,–,–,< 5,< 5
"NS(=O)(=O)c1ccc(Nc2ncc3cccc(-c4cc[nH]c(=O)c4)c3n2)cc1 [Compound 833, 4-(8-(2-oxo-1,2-dihydropyridin-4-yl)quinazolin-2-ylamino)benzenesulfonamide]",< 5,–,–,5 to 10,< 5
"NS(=O)(=O)c1ccc(Nc2ncc3cccc(C(=O)NC4CCCNC4)c3n2)cc1 (stereo not drawn) [Compound 803, N-(piperidin-3-yl)-2-(4-sulfamoylphenylamino)quinazoline-8-carboxamide]",< 5,–,–,5 to 10,< 5
"CS(=O)(=O)Nc1cccc(-c2cccc3cnc(Nc4ccc(S(N)(=O)=O)cc4)nc23)c1 [Compound 736, 4-(8-(3-(methylsulfonamido)phenyl)quinazolin-2-ylamino)benzenesulfonamide]",< 5,–,–,< 5,< 5
